Experimental data: patent US20100168179A1, “6-ALKENYL-, 6-ALKINYL- AND 6-EPOXY-EPOTHILONE DERIVATIVES, PROCESS FOR THEIR PRODUCTION, AND THEIR USE IN PHARMACEUTICAL PREPARATIONS” (priority 1999, published 2010)
pIC50: −log10 of the molar value. Blank lines part the entries; values can stand above or below the compound they belong to.

Legend:
NCl/ADR = test: growth inhibition of multi-drug-resistant NCl/ADR carcinoma cell line, crystal-violet assay; type: cell-based, human; settings: for pIC50: crystal-violet assay, multi-drug-resistant line; for Selectivity = IC50-(NCl/ADR): IC50 (MCF-7): Table 1, ratio NCl/ADR to MCF-7
Description: (§1) In Vitro Activity of Epothilone Derivatives on Human Tumor Cell Lines
(§2) a) IC50 values [nM] for the growth inhibition of human MCF-7-breast and multi-drug-resistant NCl/ADR-carcinoma cell lines of epothilone derivatives with 13Z-unsaturated in the crystal-violet assay in comparison to Taxol.
(§3) b) IC50 values [nM] for the growth inhibition of human MCF-7-breast- and multi-drug-resistant NCl/ADR carcinoma cell lines of epothilone derivative with 13,14-α-epoxide, which was formed from the 13-Z-configured double bond in the crystal-violet assay in comparison to Taxol.
(§4) c) IC50 values [nM] for the growth inhibition of human MCF-7-breast- and multi-drug-resistant NCl/ADR-carcinoma cell lines of epothilone derivatives with 13,14-epoxide, which was formed from the 13-E-configured double bond, in a crystal-violet assay in comparison to Taxol.

MCF-7 = test: growth inhibition of human MCF-7 breast carcinoma cell line, crystal-violet assay; type: cell-based
Description: as §1, §2, §3, §4

[1] = Table 3, 13,14-epoxide formed from the 13-E-configured double bond
[2] = Table 3, ratio NCl/ADR to MCF-7
[3] = Table 1, epothilone derivatives with 13Z-unsaturated
[4] = Table 2, 13,14-α-epoxide formed from the 13-Z-configured double bond
[5] = Table 2, ratio NCl/ADR to MCF-7

Structure (SMILES): C#CCC[C@H]1C(=O)C(C)(C)[C@@H](O)CC(=O)O[C@H](/C(C)=C/c2ccccn2)C[C@@H]2OC2(C)CCC[C@H](C)[C@@H]1O (single isomer, unassigned) [Example 6A or B]
pIC50 (NCl/ADR; [1]): 7.17
Selectivity = IC50-(NCl/ADR): IC50-(MCF-7) (NCl/ADR; [2]): 15.8
pIC50 (MCF-7; [1]): 8.37

Structure (SMILES): C#CCC[C@H]1C(=O)C(C)(C)[C@@H](O)CC(=O)O[C@H](/C(C)=C/c2ccccn2)C/C=C(/C)CCC[C@H](C)[C@@H]1O [Example 1, (4S,7R,8S,9S,13Z,16S(E))-4,8-Dihydroxy-16-(1-methyl-2-(2-pyridyl)ethenyl)-1-oxa-5,5,9,13-tetramethyl-7-(but-3-in-1-yl)-cyclohexadec-13-ene-2,6-dione]
pIC50 (NCl/ADR; [3]): 7.12
Selectivity = IC50-(NCl/ADR): IC50 (MCF-7) (NCl/ADR): 2.5
pIC50 (MCF-7; [3]): 7.52

Structure (SMILES): C=CCC[C@H]1C(=O)C(C)(C)[C@@H](O)CC(=O)O[C@H](/C(C)=C/c2ccccn2)C/C=C(/C)CCC[C@H](C)[C@@H]1O [Example 2, (4S,7R,8S,9S,13Z,16S(E))-4,8-Dihydroxy-16-(1-methyl-2-(2-pyridyl)ethenyl)-1-oxa-5,5,9,13-tetramethyl-7-(but-3-en-1-yl)-cyclohexadec-13-ene-2,6-dione]
pIC50 (NCl/ADR; [3]): 7.15
Selectivity = IC50-(NCl/ADR): IC50 (MCF-7) (NCl/ADR): 2.8
pIC50 (MCF-7; [3]): 7.60

Structure (SMILES): C#CC[C@H]1C(=O)C(C)(C)[C@@H](O)CC(=O)O[C@H](/C(C)=C/c2ccccn2)C/C=C(/C)CCC[C@H](C)[C@@H]1O [Example 13, (4S,7R,8S,9S,13Z,16S(E))-4,8-Dihydroxy-16-(1-methyl-2-(2-pyridyl)ethenyl)-1-oxa-5,5,9,13-tetramethyl-7-(prop-2-in-1-yl)-cyclohexadec-13-ene-2,6-dione]
pIC50 (MCF-7; [3]): 7.47

Structure (SMILES): C=CC[C@H]1C(=O)C(C)(C)[C@@H](O)CC(=O)O[C@H](/C(C)=C/c2ccccn2)C/C=C(/C)CCC[C@H](C)[C@@H]1O [Example 15, (4S,7R,8S,9S,13Z,16S(E))-4,8-Dihydroxy-16-(1-methyl-2-(2-pyridyl)ethenyl)-1-oxa-5,5,9,13-tetramethyl-7-(prop-2-en-1-yl)-cyclohexadec-13-ene-2,6-dione]
pIC50 (MCF-7; [3]): 7.60

Structure (SMILES): C=CC[C@H]1C(=O)C(C)(C)[C@@H](O)CC(=O)O[C@H](c2ccc3oc(C)nc3c2)C/C=C(/C)CCC[C@H](C)[C@@H]1O [Example 21, (4S,7R,8S,9S,13Z,16S(E))-4,8-Dihydroxy-16-(2-methyl-benzoxazol-5-yl)-1-oxa-5,5,9,13-tetramethyl-7-(prop-2-en-1-yl)-cyclohexadec-13-ene-2,6-dione]
pIC50 (MCF-7; [3]): 7.49

Structure (SMILES): C#CC[C@H]1C(=O)C(C)(C)[C@@H](O)CC(=O)O[C@H](/C(F)=C/c2csc(C)n2)C/C=C(/C)CCC[C@H](C)[C@@H]1O [Example 23, (4S,7R,8S,9S,13Z,16S(Z))-4,8-Dihydroxy-16-(1-fluoro-2-(2-methylthiazol-4-yl)ethenyl)-7-(prop-2-in-1-yl)-1-oxa-5,5,9,13-tetramethyl-cyclohexadec-13-ene-2,6-dione]
pIC50 (NCl/ADR; [3]): 7.21
Selectivity = IC50-(NCl/ADR): IC50 (MCF-7) (NCl/ADR): 5.6
pIC50 (MCF-7; [3]): 7.96

Structure (SMILES): C#CC[C@H]1C(=O)C(C)(C)[C@@H](O)CC(=O)O[C@H](/C(F)=C/c2coc(C)n2)C/C=C(/C)CCC[C@H](C)[C@@H]1O [Example 27, (4S,7R,8S,9S,13Z,16S(Z))-4,8-Dihydroxy-16-(1-fluoro-2-(2-methyloxazol-4-yl)ethenyl)-7-(prop-2-in-1-yl)-1-oxa-5,5,9,13-tetramethyl-cyclohexadec-13-ene-2,6-dione]
pIC50 (NCl/ADR; [3]): 7.39
Selectivity = IC50-(NCl/ADR): IC50 (MCF-7) (NCl/ADR): 1.6
pIC50 (MCF-7; [3]): 7.60

Structure (SMILES): CC(=O)O[C@H]1C(=O)[C@@]2(C)[C@H]([C@H](OC(=O)c3ccccc3)[C@]3(O)C[C@H](OC(=O)[C@H](O)[C@@H](NC(=O)c4ccccc4)c4ccccc4)C(C)=C1C3(C)C)[C@]1(OC(C)=O)CO[C@@H]1C[C@@H]2O [Taxol, reference compound]
pIC50 (NCl/ADR; Homo sapiens, Table 1, epothilone derivatives with 13Z-unsaturated): < 7.00
Selectivity = IC50-(NCl/ADR): IC50 (MCF-7) (NCl/ADR): >28.6
pIC50 (NCl/ADR; [4]): < 7.00
Selectivity = IC50-(NCl/ADR): IC50-(MCF-7) (NCl/ADR; [5]): >29
pIC50 (NCl/ADR; [1]): < 7.00
Selectivity = IC50-(NCl/ADR): IC50-(MCF-7) (NCl/ADR; [2]): >29
action on the multi-drug-resistant cell line NCl/ADR (NCl/ADR; in words, in comparison to Taxol): not exhibited
pIC50 (MCF-7; Homo sapiens, MCF7, Table 1, epothilone derivatives with 13Z-unsaturated): 8.46

Next, values leading:

pIC50 (NCl/ADR; [1]): 7.28
Selectivity = IC50-(NCl/ADR): IC50-(MCF-7) (NCl/ADR; [2]): 11.0
pIC50 (MCF-7; [1]): 8.32
Structure (SMILES): C=CC[C@H]1C(=O)C(C)(C)[C@@H](O)CC(=O)O[C@H](/C(C)=C/c2csc(C)n2)CC2O[C@@]2(C)CCC[C@H](C)[C@@H]1O (single isomer, unassigned) [Example 12B or A]

pIC50 (NCl/ADR; [4]): 8.04
Selectivity = IC50-(NCl/ADR): IC50-(MCF-7) (NCl/ADR; [5]): 7.0
pIC50 (MCF-7; [4]): 8.89
Structure (SMILES): C#CCC[C@H]1C(=O)C(C)(C)[C@@H](O)CC(=O)O[C@H](/C(C)=C/c2ccccn2)C[C@@H]2O[C@]2(C)CCC[C@H](C)[C@@H]1O [Example 4A, (1S,3S(E),7S,10R,11S,12S,16R)-7,11-Dihydroxy-10-(but-3-in-1-yl)-3-(1-methyl-2-(2-pyridyl)ethenyl)-8,8,12,16-tetramethyl-4,17-dioxabicyclo[14.1.0]heptadecane-5,9-dione]

pIC50 (NCl/ADR; [4]): 8.42
Selectivity = IC50-(NCl/ADR): IC50-(MCF-7) (NCl/ADR; [5]): 1.2
pIC50 (MCF-7; [4]): 8.51
Structure (SMILES): C=CCC[C@H]1C(=O)C(C)(C)[C@@H](O)CC(=O)O[C@H](/C(C)=C/c2ccccn2)C[C@@H]2O[C@]2(C)CCC[C@H](C)[C@@H]1O [Example 5A, (1S,3S(E),7S,10R,11S,12S,16R)-7,11-Dihydroxy-10-(but-3-en-1-yl)-3-(1-methyl-2-(2-pyridyl)ethenyl)-8,8,12,16-tetramethyl-4,17-dioxabicyclo[14.1.0]heptadecane-5,9-dione]

pIC50 (NCl/ADR; [3]): 7.39
Selectivity = IC50-(NCl/ADR): IC50 (MCF-7) (NCl/ADR): 2.4
pIC50 (MCF-7; [3]): 7.77
Structure (SMILES): C=CC[C@H]1C(=O)C(C)(C)[C@@H](O)CC(=O)O[C@H](/C(C)=C/c2csc(C)n2)C/C=C(/C)CCC[C@H](C)[C@@H]1O [Example 9, (4S,7R,8S,9S,13Z,16S(E))-4,8-Dihydroxy-16-(1-methyl-2-(2-methylthiazol-4-yl)ethenyl)-1-oxa-5,5,9,13-tetramethyl-7-(prop-2-en-1-yl)-cyclohexadec-13-ene-2,6-dione]

pIC50 (NCl/ADR; [4]): 8.44
Selectivity = IC50-(NCl/ADR): IC50-(MCF-7) (NCl/ADR; [5]): 3.0
pIC50 (MCF-7; [4]): 8.92
Structure (SMILES): C=CC[C@H]1C(=O)C(C)(C)[C@@H](O)CC(=O)O[C@H](/C(C)=C/c2csc(C)n2)C[C@@H]2O[C@]2(C)CCC[C@H](C)[C@@H]1O [Example 10A, (1S,3S(E),7S,10R,11S,12S,16R)-7,11-Dihydroxy-10-(prop-2-en-1-yl)-3-(1-methyl-2-(2-methylthiazol-4-yl)ethenyl)-8,8,12,16-tetramethyl-4,17-dioxabicyclo[14.1.0]heptadecane-5,9-dione]

pIC50 (NCl/ADR; [1]): 7.21
Selectivity = IC50-(NCl/ADR): IC50-(MCF-7) (NCl/ADR; [2]): 1.5
pIC50 (MCF-7; [1]): 7.40
Structure (SMILES): C=CC[C@H]1C(=O)C(C)(C)[C@@H](O)CC(=O)O[C@H](/C(C)=C/c2csc(C)n2)C[C@H]2O[C@]2(C)CCC[C@H](C)[C@@H]1O [Example 12A or B, (1R,3S(E),7S,10R,11S,12S,16R)-7,11-Dihydroxy-10-(prop-2-en-1-yl)-3-(1-methyl-2-(2-methylthiazol-4-yl)ethenyl)-8,8,12,16-tetramethyl-4,17-dioxabicyclo[14.1.0]heptadecane-5,9-dione]

pIC50 (NCl/ADR; [4]): 7.96
Selectivity = IC50-(NCl/ADR): IC50-(MCF-7) (NCl/ADR; [5]): 4.8
pIC50 (MCF-7; [4]): 8.64
Structure (SMILES): C#CC[C@H]1C(=O)C(C)(C)[C@@H](O)CC(=O)O[C@H](/C(F)=C/c2csc(C)n2)C[C@@H]2O[C@]2(C)CCC[C@H](C)[C@@H]1O [Example 25, (1S,3S(Z),7S,10R,11S,12S,16R)-7,11-Dihydroxy-3-(1-fluoro-2-(2-methyl-4-thiazolyl)ethenyl)-10-(prop-2-in-1-yl)-8,8,12,16-tetramethyl-4,17-dioxabicyclo[14.1.0]heptadecane-5,9-dione]

pIC50 (NCl/ADR; [1]): 7.22
Selectivity = IC50-(NCl/ADR): IC50-(MCF-7) (NCl/ADR; [2]): 3.3
pIC50 (MCF-7; [1]): 7.74
Structure (SMILES): C#CC[C@H]1C(=O)C(C)(C)[C@@H](O)CC(=O)O[C@H](/C(F)=C/c2csc(C)n2)C[C@@H]2O[C@@]2(C)CCC[C@H](C)[C@@H]1O [Example 26A or B, (1S,3S(Z),7S,10R,11S,12S,16S)-7,11-Dihydroxy-3-(1-fluoro-2-(2-methyl-4-thiazolyl)ethenyl)-10-(prop-2-in-1-yl)-8,8,12,16-tetramethyl-4,17-dioxabicyclo[14.1.0]heptadecane-5,9-dione]
